Legend:
FKBP51 = biological target: T1, FKBP51 (Homo sapiens, UniProt Q13451); test: Fluorescence polarization (FP) assay, binding to the FK506-binding domain of FKBP51; settings: FK506-binding domain of FKBP51 (FKBP51FK1), competition with fluorescent ligand 2b
T1 sequence (Q13451 42-130 limits assumed): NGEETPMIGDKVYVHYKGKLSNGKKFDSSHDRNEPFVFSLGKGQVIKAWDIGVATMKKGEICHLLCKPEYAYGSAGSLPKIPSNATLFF
Summary of the method: (§1)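 Competitive FP with fluorescent ligand 2b at 20 nM (2× concentration) and FK1 domain at 280 nM (FKBP51) or 400 nM (FKBP52) in 20 mM HEPES pH 8, 0.01% Triton-X100. Anisotropy read after 30 min at room temperature (ex 485, em 535 nm), in duplicate; IC50 by four-parameter fit, Ki via Wang competitive equation.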

FKBP52 = biological target: T2, FKBP52 (Homo sapiens, UniProt Q02790); test: Fluorescence polarization (FP) assay, binding to the FK506-binding domain of FKBP52; settings: FK506-binding domain of FKBP52 (FKBP52FK1), competition with fluorescent ligand 2b
T2 sequence (Q02790 50-138 limits assumed): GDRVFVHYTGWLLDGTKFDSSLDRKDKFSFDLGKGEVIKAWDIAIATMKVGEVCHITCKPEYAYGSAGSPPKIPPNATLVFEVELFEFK
Summary of the method: as §1

Row | SMILES | Ki (FKBP51) [µM] | Ki (FKBP52) [µM]
1 | CNC[C@H]1CN(CCOC)C(=O)[C@@H]2CCC[C@H]1N2S(=O)(=O)c1cc(Cl)cc(Cl)c1 [Compound B12, (1S,5S,6R)-10-((3,5-dichlorophenyl)sulfonyl)-3-(2-methoxyethyl)-5-((methylamino)methyl)-3,10-diazabicyclo[4.3.1]decan-2-one] | 0.1 to 0.5 | 0.1 to 0.5
2 | C=CC1CN(Cc2ccccn2)C(=O)C2CCCC1N2S(=O)(=O)c1cccc(Br)c1 (stereo in doubt) [Compound K5, (1S,5R,6R)-10-((3-bromophenyl)sulfonyl)-3-(pyridin-2-ylmethyl)-5-vinyl-3,10-diazabicyclo[4.3.1]decan-2-one] | ≤ 0.1 | ≤ 0.1
3 | C=CC1CN(CCCOC)C(=O)C2CCCC1N2S(=O)(=O)c1cc(Cl)cc(Cl)c1 (stereo in doubt) [Compound J2, (1S,5R,6R)-10-((3,5-dichlorophenyl)sulfonyl)-3-(3-methoxypropyl)-5-vinyl-3,10-diazabicyclo[4.3.1]decan-2-one] | 0.5 to 1 | 0.5 to 1
4 | C#CCN1C[C@H](COC)[C@H]2CCC[C@@H](C1=O)N2S(=O)(=O)c1ccc(NC(C)=O)c(Br)c1 [Compound N7, N-(2-bromo-4-(((1S,5S,6R)-5-(methoxymethyl)-2-oxo-3-(prop-2-yn-1-yl)-3,10-diazabicyclo[4.3.1]decan-10-yl)sulfonyl)phenyl)acetamide] | 0.1 to 0.5 | 0.1 to 0.5
5 | COc1ccc(OCCN2C[C@H](C(C)O)C3CCCC(C2=O)N3S(=O)(=O)c2cc(Cl)cc(Cl)c2)cc1OC (stereo in doubt) [Compound D7, (1S,5S,6R)-10-((3,5-dichlorophenyl)sulfonyl)-3-(2-(3,4-dimethoxyphenoxy)ethyl)-5-((R)-1-hydroxyethyl)-3,10-diazabicyclo[4.3.1]decan-2-one] | ≤ 0.1 | ≤ 0.1
6 | COCCN1C[C@H]([C@H](C)O)[C@H]2CCC[C@@H](C1=O)N2S(=O)(=O)c1cc(Cl)cc(Cl)c1 [Compound B7, (1S,5S,6R)-10-((3,5-dichlorophenyl)sulfonyl)-5-((S)-1-hydroxyethyl)-3-(2-methoxyethyl)-3,10-diazabicyclo[4.3.1]decan-2-one] | ≤ 0.1 | ≤ 0.1
7 | COc1ccc(OCCN2C[C@H](C(C)O)C3CCCC(C2=O)N3S(=O)(=O)c2cc(Cl)cc(Cl)c2)cc1OC (stereo in doubt) [Compound D6, (1S,5S,6R)-10-((3,5-dichlorophenyl)sulfonyl)-3-(2-(3,4-dimethoxyphenoxy)ethyl)-5-((R)-1-hydroxyethyl)-3,10-diazabicyclo[4.3.1]decan-2-one] | ≤ 0.1 | ≤ 0.1
8 | O=C1[C@@H]2CCC[C@H]([C@H](CO)CN1CCCO)N2S(=O)(=O)c1cc(Cl)cc(Cl)c1 [Compound J5, (1S,5R,6R)-10-((3,5-dichlorophenyl)sulfonyl)-5-(hydroxymethyl)-3-(3-hydroxypropyl)-3,10-diazabicyclo[4.3.1]decan-2-one] | 0.5 to 1 | 0.5 to 1
9 | COCCN1C[C@H](C(C)(C)O)[C@H]2CCC[C@@H](C1=O)N2S(=O)(=O)c1cc(Cl)cc(Cl)c1 [Compound B3, (1S,5S,6R)-10-((3,5-dichlorophenyl)sulfonyl)-5-(2-hydroxypropan-2-yl)-3-(2-methoxyethyl)-3,10-diazabicyclo[4.3.1]decan-2-one] | ≤ 0.1 | ≤ 0.1
10 | COC[C@H]1CN(Cc2cnn[nH]2)C(=O)[C@@H]2CCC[C@H]1N2S(=O)(=O)c1cc(Br)cc(Br)c1 [Compound N18, (1S,5S,6R)-3-((1H-1,2,3-triazol-5-yl)methyl)-10-((3,5-dibromophenyl)sulfonyl)-5-(methoxymethyl)-3,10-diazabicyclo[4.3.1]decan-2-one] | ≤ 0.1 | ≤ 0.1
11 | COC[C@H]1CN(Cc2cnn[nH]2)C(=O)[C@@H]2CCC[C@H]1N2S(=O)(=O)c1ccc(NC(C)=O)c(Br)c1 [Compound N22, N-(4-(((1S,5S,6R)-3-((1H-1,2,3-triazol-5-yl)methyl)-5-(methoxymethyl)-2-oxo-3,10-diazabicyclo[4.3.1]decan-10-yl)sulfonyl)-2-bromophenyl)acetamide] | ≤ 0.1 | ≤ 0.1
12 | O=C1NCCC2CCCC1N2S(=O)(=O)c1ccc2sc(=O)[nH]c2c1 (stereo not drawn) [Ref. 4, reference compound] | > 5 | > 5
13 | COCCN1C[C@H](C(N)=O)[C@H]2CCC[C@@H](C1=O)N2S(=O)(=O)c1cc(Cl)cc(Cl)c1 [Compound B11, (1S,5S,6R)-10-((3,5-dichlorophenyl)sulfonyl)-3-(2-methoxyethyl)-2-oxo-3,10-diazabicyclo[4.3.1]decane-5-carboxamide] | 0.1 to 0.5 | 0.1 to 0.5
14 | C=CC1CN(Cc2ccccn2)C(=O)C2CCCC1N2S(=O)(=O)c1cccc(Cl)c1 (stereo in doubt) [Compound K11, (1S,5R,6R)-10-((3-chlorophenyl)sulfonyl)-3-(pyridin-2-ylmethyl)-5-vinyl-3,10-diazabicyclo[4.3.1]decan-2-one] | 0.1 to 0.5 | 0.1 to 0.5
15 | COc1ccc(OCCN2CCC3CCCC(C2=O)N3S(=O)(=O)c2cc(Cl)cc(Cl)c2)cc1OC (stereo not drawn) [Ref. 1, reference compound] | 1 to 5 | 1 to 5
16 | C=C[C@@H]1CN(CCCCOC)C(=O)[C@@H]2CCC[C@H]1N2S(=O)(=O)c1cc(Cl)cc(Cl)c1 [Compound J3, (1S,5R,6R)-10-((3,5-dichlorophenyl)sulfonyl)-3-(4-methoxybutyl)-5-vinyl-3,10-diazabicyclo[4.3.1]decan-2-one] | 0.5 to 1 | 0.5 to 1
17 | COC[C@H]1CN(Cc2cnn[nH]2)C(=O)[C@@H]2CCC[C@H]1N2S(=O)(=O)c1cc(Cl)cc(C(N)=O)c1 [Compound N21, 3-(((1S,5S,6R)-3-((1H-1,2,3-triazol-5-yl)methyl)-5-(methoxymethyl)-2-oxo-3,10-diazabicyclo[4.3.1]decan-10-yl)sulfonyl)-5-chlorobenzamide] | ≤ 0.1 | ≤ 0.1
18 | COCC1CN(Cc2ccccn2)C(=O)C2CCCC1N2S(=O)(=O)c1cc(Cl)cc(Cl)c1 (stereo in doubt) [Compound M5, (1S,5R,6R)-10-((3,5-dichlorophenyl)sulfonyl)-5-(methoxymethyl)-3-(pyridin-2-ylmethyl)-3,10-diazabicyclo[4.3.1]decan-2-one] | ≤ 0.1 | ≤ 0.1
19 | C=CC1CN(Cc2ccccn2)C(=O)C2CCCC1N2S(=O)(=O)c1cccc(F)c1 (stereo in doubt) [Compound K15, (1S,5R,6R)-10-((3-fluorophenyl)sulfonyl)-3-(pyridin-2-ylmethyl)-5-vinyl-3,10-diazabicyclo[4.3.1]decan-2-one] | 0.1 to 0.5 | 0.1 to 0.5
20 | COCCO[C@H]1CN(CCOC)C(=O)[C@@H]2CCC[C@H]1N2S(=O)(=O)c1cc(Cl)cc(Cl)c1 [Compound H2.1, (1S,5S,6R)-10-((3,5-dichlorophenyl)sulfonyl)-5-(2-methoxyethoxy)-3-(2-methoxyethyl)-3,10-diazabicyclo[4.3.1]decan-2-one] | 0.1 to 0.5 | 0.1 to 0.5
21 | COCCN1C[C@H](C=O)[C@H]2CCC[C@@H](C1=O)N2S(=O)(=O)c1cc(Cl)cc(Cl)c1 [Compound B9, (1S,5S,6R)-10-((3,5-dichlorophenyl)sulfonyl)-3-(2-methoxyethyl)-2-oxo-3,10-diazabicyclo[4.3.1]decane-5-carbaldehyde] | 0.1 to 0.5 | 0.1 to 0.5
22 | O=C1[C@@H]2CCC[C@H]([C@@H](C(F)F)CN1Cc1ccccn1)N2S(=O)(=O)c1cc(Cl)cc(Cl)c1 [Compound M3, (1S,5S,6R)-10-((3,5-dichlorophenyl)sulfonyl)-5-(difluoromethyl)-3-(pyridin-2-ylmethyl)-3,10-diazabicyclo[4.3.1]decan-2-one] | ≤ 0.1 | ≤ 0.1
23 | C#CCN1C[C@H](COC)[C@H]2CCC[C@@H](C1=O)N2S(=O)(=O)c1cc(Br)cc(Br)c1 [Compound N3, (1S,5S,6R)-10-((3,5-dibromophenyl)sulfonyl)-5-(methoxymethyl)-3-(prop-2-yn-1-yl)-3,10-diazabicyclo[4.3.1]decan-2-one] | 0.1 to 0.5 | 0.1 to 0.5
24 | C=C[C@@H]1CN(Cc2ccncn2)C(=O)[C@@H]2CCC[C@H]1N2S(=O)(=O)c1cc(Cl)cc(Cl)c1 [Compound J15, (1S,5R,6R)-10-((3,5-dichlorophenyl)sulfonyl)-3-(pyrimidin-4-ylmethyl)-5-vinyl-3,10-diazabicyclo[4.3.1]decan-2-one] | 0.1 to 0.5 | 0.1 to 0.5
25 | C=C[C@@H]1CN(Cc2ccccn2)C(=O)[C@@H]2CCC[C@H]1N2S(=O)(=O)c1cccc(C#N)c1 [Compound K7, 3-(((1S,5R,6R)-2-oxo-3-(pyridin-2-ylmethyl)-5-vinyl-3,10-diazabicyclo[4.3.1]decan-10-yl)sulfonyl)benzonitrile] | 0.1 to 0.5 | 0.1 to 0.5
26 | C#CCN1C[C@H](COC)[C@H]2CCC[C@@H](C1=O)N2S(=O)(=O)c1cc(Cl)c(NC(C)=O)c(Cl)c1 [Compound N9, N-(2,6-dichloro-4-(((1S,5S,6R)-5-(methoxymethyl)-2-oxo-3-(prop-2-yn-1-yl)-3,10-diazabicyclo[4.3.1]decan-10-yl)sulfonyl)phenyl)acetamide] | 0.1 to 0.5 | 0.1 to 0.5
27 | O=C1[C@@H]2CCC[C@H]([C@H](CO)CN1Cc1ccccn1)N2S(=O)(=O)c1cc(Cl)cc(Cl)c1 [Compound J8, (1S,5R,6R)-10-((3,5-dichlorophenyl)sulfonyl)-5-(hydroxymethyl)-3-(pyridin-2-ylmethyl)-3,10-diazabicyclo[4.3.1]decan-2-one] | ≤ 0.1 | ≤ 0.1
